The nature of data set [1]: Aqueous solubility (laser nephelometry). The note with it: aqueous assay buffer pH 6.5 with 1% DMSO, aqueous buffer, kinetic from dmso stock, pH 6.5, 1% DMSO, 30 minute incubation at 25° C. It counts as physicochemical. On the procedure: Test compounds prepared in DMSO were screened in duplicate over a range of concentrations (1.6-100 ug/mL) in different aqueous media (for example a pH6.5 buffers which are relevant to the stomach and upper regions of the small intestine and therefore important when predicting the amount of drug likely to be in solution following oral administration). Test compounds were serially diluted in 100% DMSO ranging from 10-0.16 mg/mL. These titrated DMSO stocks were then further diluted 1:100 with assay buffer and added to test plates (UV Star Griener 384 well plates), maintaining the DMSO concentration at 1%.

Another data set addresses T1, 1b (BK) NS5BΔ21 (Hepatitis C virus genotype 1b, UniProt P26663).
T1 construct: 100 nM 1b (BK) NS5BΔ21
Kind of data set: HCV polymerase inhibition assay. Type of data set: biochemical. On the procedure:
HCV polymerase reactions were carried out using a modified method of Howe et al., Antimicrobial Agents and Chemotherapy 2004 48(12): 4813-4821. Reactions contained a final concentration of, 0.5% DMSO, 100 nM 1b (BK) NS5BΔ21, 20 mM Tris-HCl pH 7.5, 5 mM MgCl2, 5 mM MnCl2, 3 mM DTT, 0.05% BSA, 0.2 U/μL RNasin, 10 μg/mL Poly(rC) template, GTP (at Km) and 0.05 μCi/μL ^33P-GTP in a total reaction volume of 50 μL. Compounds were tested in a three fold dilution series, for example starting from 50 μM. Reactions were initiated with the addition of GTP and terminated after […] with 50 μL ice cold 0.2 M EDTA. Terminated reactions were transferred to DEAE 96-well filter plates, unincorporated nucleotides washed from the filters and 50 μL scintillation fluid added prior to reading on a scintillation counter. The compound concentration that reduced ^33P-GTP incorporation by 50% (IC50) was calculated using non-linear regression.

The test system of data set [2] is genotype 1b (Con 1) subgenomic replicon cell line. Kind of data set: HCV replicon assay, genotype 1b, Renilla luciferase reporter. It counts as cell-based. The note with it: Hepatitis C virus; 72 hours incubation, Renilla luciferase activity. How it is done:
A genotype 1b (Con 1) subgenomic replicon cell line based on Blight et al., Science 2000 290: 1972-1974, modified to express a Renilla luciferase reporter gene was used to assess antiviral activity of test compounds. Cell cultures were maintained in a sub-confluent state in DMEM with glutamine, 10% heat-inactivated foetal bovine serum (FBS) and G418 (Geneticin®).
For assay, cells were seeded at a density of 7000 cells/well into 96 well tissue culture trays in culture media lacking G418. Compounds were tested in a three fold dilution series, for example starting from 50 uM. After 72 hours incubation at 37° C. and 5% CO2, Renilla luciferase activity was quantified via the Promega Renilla Luciferase or Renilla-Glo™ Luciferase Assay Systems (Promega corporation. The same method was employed for replicon assays using subgenomic genotype 1a (H77) and 2a (JFH-1) replicon cell lines with a seeding cell density of 5000 cells/well for the 2a cell lines.
The compound concentration that reduced luciferase activity by 50% (EC50) was calculated using non-linear regression.

Setting [3] is: read-out: solubility ranges at pH 6.5.

Values after ≈ are worked out from the molar mass of the structure shown. Read-outs that look alike come from different tables or passages of the source.

T1 sequence (P26663 2420-2989, stated change not applied): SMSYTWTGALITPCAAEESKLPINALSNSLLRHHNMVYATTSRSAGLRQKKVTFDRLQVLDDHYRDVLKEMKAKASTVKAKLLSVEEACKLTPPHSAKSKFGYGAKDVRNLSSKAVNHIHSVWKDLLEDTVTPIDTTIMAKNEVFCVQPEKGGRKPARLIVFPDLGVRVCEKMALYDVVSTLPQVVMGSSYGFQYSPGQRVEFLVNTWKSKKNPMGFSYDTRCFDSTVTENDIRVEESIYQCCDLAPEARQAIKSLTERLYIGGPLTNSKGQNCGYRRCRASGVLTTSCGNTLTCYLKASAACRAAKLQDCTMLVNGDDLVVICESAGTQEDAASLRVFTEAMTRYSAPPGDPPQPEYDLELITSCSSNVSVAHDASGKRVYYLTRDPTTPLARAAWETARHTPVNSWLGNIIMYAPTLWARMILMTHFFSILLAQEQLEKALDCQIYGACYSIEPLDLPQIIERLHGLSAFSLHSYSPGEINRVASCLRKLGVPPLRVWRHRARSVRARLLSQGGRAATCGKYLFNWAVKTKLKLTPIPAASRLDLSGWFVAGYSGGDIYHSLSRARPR

Take `CNC(=O)c1c2cc(C3CC3)c(N(CC3CCC3)S(C)(=O)=O)cc2nn1-c1ccc(Cl)cc1` [A, reference compound]: the solubility at 30 min in data set [1] (read-out: Solubility at pH 6.5) lay in the range of 1.6 to 3.1 µg/mL (≈ 3.29 to 6.37 µM).
`CNC(=O)c1c2cc(C3CC3)c(N(CC3CC3)S(C)(=O)=O)cc2nn1-c1ccc(Cl)cc1` [B, reference compound]: in data set [1] (read-out: Solubility at pH 6.5), the solubility at 30 min lay in the range of 3.1 to 6.3 µg/mL (≈ 6.55 to 13.3 µM).
In the case of `CNC(=O)c1c2cc(C3CC3)c(N(CC3CCOC3)S(C)(=O)=O)cc2nn1-c1ccc(Cl)cc1` (stereo not drawn) [C, reference compound], in data set [1] (read-out: Solubility at pH 6.5), the solubility at 30 min is < 1.6 µg/mL.
With `CNC(=O)c1c2cc(C3CC3)c(N(CCCC3CCO3)S(C)(=O)=O)cc2nn1-c1ccc(Cl)cc1` (stereo not drawn) [Compound 4, 2-(4-chlorophenyl)-5-cyclopropyl-N-methyl-6-{(methylsulfonyl)[3-(oxetan-2-yl)propyl]amino}-2H-indazole-3-carboxamide], the IC50 against 1b (BK) NS5BΔ21 was < 100 nM. In data set [2], the EC50 was < 100 nM.
As to `CNC(=O)c1c2cc(C3CC3)c(N(CCC3COC3)S(C)(=O)=O)cc2nn1-c1ccc(C)cn1` [Compound 5, 5-cyclopropyl-N-methyl-2-(5-methylpyridin-2-yl)-6-{(methylsulfonyl)[2-(oxetan-3-yl)ethyl]amino}-2H-indazole-3-carboxamide], the IC50 at 1b (BK) NS5BΔ21 lay within 500 to 990 nM.
For `CNC(=O)c1c2cc(C3CC3)c(N(CCC3CNC3)S(C)(=O)=O)cc2nn1-c1ccc(Cl)cc1` [Compound 6, 6-{[2-(Azetidin-3-yl)ethyl](methylsulfonyl)amino}-2-(4-chlorophenyl)-5-cyclopropyl-N-methyl-2H-indazole-3-carboxamide], the IC50 against 1b (BK) NS5BΔ21 was 100 to 490 nM. Also, the EC50 in data set [2] lay in the range of 1000 to 10000 nM.
On to `CNC(=O)c1c2cc(C3CC3)c(N(CCC3CN(C)C3)S(C)(=O)=O)cc2nn1-c1ccc(Cl)cc1` [Compound 7, 2-(4-chlorophenyl)-5-cyclopropyl-N-methyl-6-{[2-(1-methylazetidin-3-yl)ethyl](methylsulfonyl)amino}-2H-indazole-3-carboxamide], for which, on 1b (BK) NS5BΔ21, the IC50 is 100 to 490 nM. The 50% effective concentration (EC50) in data set [2] fell in the range of 100 to 490 nM.
As to `CNC(=O)c1c2cc(C3CC3)c(N(CCC3COC3C)S(C)(=O)=O)cc2nn1-c1ccc(Cl)cc1` (stereo not drawn) [Compound 9, 2-(4-Chlorophenyl)-5-cyclopropyl-N-methyl-6-[{2[-2-methyloxetan-3-yl]ethyl}(methylsulfonyl)amino]-2H-indazole-3-carboxamide], in data set [1] (setting [3]), the solubility at 30 min fell in the range of 25 to 50 µg/mL (≈ 48.4 to 96.7 µM).
In the case of `CNC(=O)c1c2cc(C3CC3)c(N(CCC3COC3)S(C)(=O)=O)cc2nn1-c1ccc(Cl)cc1` [Compound 10, 2-(4-chlorophenyl)-5-cyclopropyl-N-methyl-6-{(methylsulfonyl)[2-(oxetan-3-yl)ethyl]amino}-2H-indazole-3-carboxamide], at 1b (BK) NS5BΔ21, the IC50 is < 100 nM. Besides, the EC50 in data set [2] is < 100 nM.
Consider `CNC(=O)c1c2cc(C3CC3)c(N(CCC3(C)COC3)S(C)(=O)=O)cc2nn1-c1ccc(Cl)cc1` [Compound 11, 2-(4-chlorophenyl)-5-cyclopropyl-N-methyl-6-{[2-(3-methyloxetan-3-yl)ethyl](methylsulfonyl)amino}-2H-indazole-3-carboxamide], for which the IC50 against 1b (BK) NS5BΔ21 was < 100 nM. Moreover, the EC50 in data set [2] was < 100 nM.
Compound `CNC(=O)c1c2cc(C3CC3)c(N(CC3(C)COC3)S(C)(=O)=O)cc2nn1-c1ccc(Cl)cc1` [Compound 12, 2-(4-chlorophenyl)-5-cyclopropyl-N-methyl-6-{[(3-methyloxetan-3-yl)methyl](methylsulfonyl)amino}-2H-indazole-3-carboxamide] displayed a 50% inhibitory concentration (IC50) against 1b (BK) NS5BΔ21 of 1000 to 10000 nM. This compound displayed an EC50 in data set [2] of 1000 to 10000 nM.
Regarding `CNC(=O)c1c2cc(C3CC3)c(N(CCC3CCO3)S(C)(=O)=O)cc2nn1-c1ccc(Cl)cc1` (stereo not drawn) [Compound 13, 2-(4-chlorophenyl)-5-cyclopropyl-N-methyl-6-{(methylsulfonyl)[2-(oxetan-2-yl)ethyl]amino}-2H-indazole-3-carboxamide], the IC50 on 1b (BK) NS5BΔ21 lay in the range of 100 to 490 nM. For the same compound, the concentration for a half-maximal effect (EC50) in data set [2] was < 100 nM.
The compound `CNC(=O)c1c2cc(C3CC3)c(N(CC(C)C3COC3)S(C)(=O)=O)cc2nn1-c1ccc(Cl)cc1` (stereo not drawn) [Compound 15, 2-(4-chlorophenyl)-5-cyclopropyl-N-methyl-6-{(methylsulfonyl) [2-(oxetan-3-yl)propyl]amino}-2H-indazole-3-carboxamide] registered an IC50 at 1b (BK) NS5BΔ21 of 100 to 490 nM. The EC50 in data set [2] was in the range of 500 to 990 nM.
With `CNC(=O)c1c2cc(C3CC3)c(N(CCC3(C(C)C)COC3)S(C)(=O)=O)cc2nn1-c1ccc(Cl)cc1` [Compound 16, 2-(4-chlorophenyl)-5-cyclopropyl-N-methyl-6-[(methylsulfonyl) {2-[3-(propan-2-yl)oxetan-3-yl]ethyl}amino]-2H-indazole-3-carboxamide], the IC50 against 1b (BK) NS5BΔ21 was < 100 nM. Also, the EC50 in data set [2] is < 100 nM.
At 1b (BK) NS5BΔ21, `CNC(=O)c1c2cc(C3CC3)c(N(CCC3CN(C(=O)OC(C)(C)C)C3)S(C)(=O)=O)cc2nn1-c1ccc(Cl)cc1` [Compound 19, tert-butyl 3-(2-{[2-(4-chlorophenyl)-5-cyclopropyl-3-(methylcarbamoyl)-2H-indazol-6-yl](methylsulfonyl)amino}ethyl)azetidine-1-carboxylate] yielded an IC50 of 100 to 490 nM. Besides, the EC50 in data set [2] is < 100 nM.
For the compound `CNC(=O)c1c2cc(C3CC3)c(N(CCC3COC3C)S(C)(=O)=O)cc2nn1-c1ccc(C)cn1` (stereo not drawn) [Compound 20, 5-cyclopropyl-N-methyl-6-{[2-(2-methyloxetan-3-yl)ethyl](methylsulfonyl)amino}-2-(5-methylpyridin-2-yl)-2H-indazole-3-carboxamide], in data set [1] (setting [3]), the solubility at 30 min lay within 12.5 to 25 µg/mL (≈ 25.1 to 50.2 µM).
Regarding `CNC(=O)c1c2cc(C3CC3)c(N(CCC3(C)COC3)S(C)(=O)=O)cc2nn1-c1ccc(C)cn1` [Compound 21, 5-cyclopropyl-N-methyl-6-{[2-(3-methyloxetan-3-yl)ethyl](methylsulfonyl)amino}-2-(5-methylpyridin-2-yl)-2H-indazole-3-carboxamide], the solubility at 30 min in data set [1] (setting [3]) is > 100 µg/mL.
For the compound `CNC(=O)c1c2cc(C3CC3)c(N(CCN3CC(O)C3)S(C)(=O)=O)cc2nn1-c1ccc(Cl)cc1` [Compound 22, 2-(4-chlorophenyl)-5-cyclopropyl-6-[2-(3-hydroxyazetidin-1-yl)ethyl-methylsulfonyl-amino]-N-methyl-indazole-3-carboxamide], the IC50 against 1b (BK) NS5BΔ21 is 500 to 990 nM. The same compound yielded an EC50 in data set [2] of 100 to 490 nM.
In the case of `CNC(=O)c1c2cc(C3CC3)c(N(CCC3CN(C(=O)OC(C)(C)C)C3)S(C)(=O)=O)cc2nn1-c1ccc(C)cn1` [Compound 24, tert-butyl 3-[2-[[5-cyclopropyl-3-(methylcarbamoyl)-2-(5-methyl-2-pyridyl)indazol-6-yl]-methylsulfonyl-amino]ethyl]azetidine-1-carboxylate], in data set [1] (setting [3]), the solubility at 30 min was 12.5 to 25 µg/mL (≈ 21.5 to 42.9 µM).
`CNC(=O)c1c2cc(C3CC3)c(N(CCC3(OC)CN(C(=O)OC(C)(C)C)C3)S(C)(=O)=O)cc2nn1-c1ccc(Cl)cc1` [Compound 27, tert-butyl 3-[2-[[2-(4-chlorophenyl)-5-cyclopropyl-3-(methylcarbamoyl)indazol-6-yl]-methylsulfonyl-amino]ethyl]-3-methoxy-azetidine-1-carboxylate]: at 1b (BK) NS5BΔ21, the IC50 lay in the range of 500 to 990 nM. In addition, in data set [2], the EC50 was < 100 nM.
On to `CNC(=O)c1c2cc(C3CC3)c(N(CCC3(OC)COC3)S(C)(=O)=O)cc2nn1-c1ccc(C)cn1` [Compound 28, 5-cyclopropyl-6-[2-(3-methoxyoxetan-3-yl)ethyl-methylsulfonyl-amino]-N-methyl-2-(5-methyl-2-pyridyl)indazole-3-carboxamide], for which the solubility at 30 min in data set [1] (setting [3]) is 50 to 100 µg/mL (≈ 97.3 to 195 µM).
Compound `CNC(=O)c1c2cc(C3CC3)c(N(CCC3COC3C)S(C)(=O)=O)cc2nn1-c1ccc(Cl)cc1` (stereo not drawn) [Compound 31, 2-(4-chlorophenyl)-5-cyclopropyl-N-methyl-6-[2-[-2-methyloxetan-3-yl]ethyl-methylsulfonyl-amino]indazole-3-carboxamide] returned an IC50 against 1b (BK) NS5BΔ21 of 100 to 490 nM. In addition, in data set [2], the EC50 is < 100 nM.
On to `CNC(=O)c1c2cc(C3CC3)c(N(CCC3CCOCC3)S(C)(=O)=O)cc2nn1-c1ccc(Cl)cc1` [D, reference compound], for which, in data set [1] (read-out: Solubility at pH 6.5), the solubility at 30 min was < 1.6 µg/mL.

The values above are taken from patent US9120775B2, “Viral polymerase inhibitors” (Biota Scientific Management Pty Ltd, priority 2012, dated 2015).
